The source of these data is US20250101104A1, “BISPECIFIC MOLECULE WITH TUNABLE AFFINITY TO A TARGETED ANTIGEN” (MABSWITCH INC., priority 2022, published 2025).

The conditions of data set [1]: mice; cited from earlier work.
In data set [2] the test system is CD123+KG-1a. Particulars: cited from earlier work.
Data set [3] relates to TF-1 AML cell lines. Particulars: cited from earlier work.
Data set [4] relates to circulating CD123^+ cells. As to conditions: cited from earlier work.
Data set [5] concerns the target T1, Human CD3 epsilon&CD3 gamma Heterodimer Protein (Homo sapiens, UniProt P07766).
T1 construct: purchased Biorbyt Ltd, Cambridge, United Kingdom
The data set can be described thus: Bispecific functionality ELISA (captured CD3, detection with biotinylated CD33 Fc-fusion). In kind it is binding. As to conditions: affinity to the CD3 antigen. As to the method: Bispecific functionality is tested in an ELISA using soluble Human CD3 epsilon&CD3 gamma Heterodimer Protein (Biorbyt Ltd, Cambridge, United Kingdom) that is captured to the ELISA plate surface and an Fc-fusion of CD33 that carried an AviTag™ (biotinylated) (BPS Bioscience, Inc., San Diego, USA) detected by HRP conjugated streptavidin (BPS Bioscience, Inc., San Diego, USA). Dilution curves of the protein A purified bispecific scFv-Fc constructs are compared. For control, a bispecific scFv-Fc construct wherein the linker between the OKT3 variable heavy chain sequence to the OKT3 variable light chain sequence is a non-switchable variant (GGGGSGGGGSGG GGS (SEQ ID NO: 365)) is constructed, produced and purified as described above.
In general terms: ELISA stands for enzyme-linked immunosorbent assay.

For data set [6], the system named is CD3 positive Jurkat cells. Nature of the data set: Switch activity on living cells, flow cytometry. The class given is cell-based. As to conditions: incubated with the switch peptide variant SEQ ID NO:2. As to the method:
The bispecific switchable anti-CD3/antiCD33 Fc fusion protein product MS42-13 is further tested for switch activity in the presence and absence of switch linkers on living cells using flow cytometry. For the cytofluorometry analysis, CD3 positive Jurkat cells (ATCC, Clone E6-1), cultivated in suspension culture as described by the provider, are seeded in FACS tubes and washed with 3 mL PBS supplemented with 2 mM EDTA and 2% (v/v) FCS (centrifugation for 5 min at 500×g and 4-C). Cells are incubated with […] of various dilutions of scFv-Fc bispecific antibody constructs (between 10 ng/mL and […]) for 1 h on ice. Cells are washed two times with 3 mL PBS (centrifugation for 5 min at 500×g and 4-C) and are incubated with 100 μL Fc-fusion of CD33 that carried an AviTag™ (biotinylated) (BPS Bioscience, Inc., San Diego, USA) (Fc-specific) for 1 h on ice in the dark in either the presence or absence of the switch peptides (1 μM or 10 μM). […] A minimum of 10^4 events are analyzed per sample. Analysis is performed with CXP analysis 2.2 software (Beckman Coulter, Fullerton, CA) and Mean Fluorescence Intensities (MFI) are determined using Flowjo™ software (Treestar).
In general terms: Flow cytometry measures light scatter and fluorescence of single cells or particles in a stream.

T1 sequence (P07766 23-126 limits assumed): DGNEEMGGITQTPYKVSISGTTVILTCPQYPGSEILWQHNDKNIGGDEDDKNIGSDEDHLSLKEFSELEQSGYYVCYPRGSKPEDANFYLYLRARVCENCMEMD
T1 sequence (P09693 23-116 partner limits assumed): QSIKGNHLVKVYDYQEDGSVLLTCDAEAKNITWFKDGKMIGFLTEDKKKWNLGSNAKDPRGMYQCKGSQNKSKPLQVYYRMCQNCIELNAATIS

Consider “XmAb14045: Fc domain-containing bispecific antibody stimulating T cell-mediated killing of CD123+ cells”, for which, in data set [1], the serum half-life is 149 h. In addition, the “EC50 of T cell-mediated killing” value in data set [2] and in data set [3] was under 1 ng/mL throughout. In data set [4] (cynomolgus monkeys), the T cell activation entry is recorded as “strongly activated T cells”. For the same substance, the “depletion of circulating CD123+ cells including basophils and plasmacytoid dendritic cells” value in data set [4] (within 1 hour of administration) is “over 99%”.

Regarding “MS42-13: switchable bispecific anti-CD3/anti-CD33 scFv-Fc fusion: OKT3 scFv with calmodulin switch linker, gemtuzumab scFv, knob-into-hole Fc (SEQ ID NO:366, 367)”, in data set [5], the “drop in EC50 compared to the construct with the non-switchable wild type Gly-Ser linker” value came out at 24.6 fold. For the same substance, in data set [6], the “increase of half-maximal binding compared to the construct with the non-switchable linker (SEQ ID NO:365)” value is on record as at most 21.3 fold.
